Experimental data reported in ChEMBL document CHEMBL1143042, “Isolation and syntheses of polymethoxyflavones and hydroxylated polymethoxyflavones as inhibitors of HL-60 cell lines” (Bioorg Med Chem, 2007).
Calls of active or inactive are those of the source. No cut-off for these calls is given here.

Key:
Assay type in all cases: functional, cell-based
[1] = system: HL-60; test: Antiproliferative activity against HL60 after 24 hrs; conditions: Homo sapiens, HL-60, 24 h
[2] = system: PMN; test: Cytotoxicity against human PMN cells at 100 uM
[3] = system: HL-60; test: Apoptotic activity in HL60 cells after 24 hrs; conditions: Homo sapiens, HL-60, 24 h

SMILES	IC50 [1]	Activity [2]	AC50 [3]
COc1ccc(-c2cc(=O)c3c(O)c(OC)c(OC)cc3o2)cc1OC	> 100 µM	inactive	> 100 µM
COc1ccc(-c2oc3c(OC)c(OC)c(OC)c(O)c3c(=O)c2OC)cc1OC	4.16 µM	inactive	5.9 µM
COc1cc(-c2cc(=O)c3c(O)c(OC)c(OC)c(OC)c3o2)cc(OC)c1OC [GARDENIN]	> 100 µM	inactive	> 100 µM
COc1ccc(-c2oc3c(OC)c(OC)c(OC)c(OC)c3c(=O)c2OC)cc1OC [3,5,6,7,8,3',4'-HEPTAMETHOXYFLAVONE]	13.3 µM	inactive	33.9 µM
COc1ccc(-c2cc(=O)c3c(OC)c(OC)c(OC)cc3o2)cc1OC [SINENSETIN]	> 100 µM	inactive	> 100 µM
COc1ccc(-c2oc3cc(OC)c(OC)c(OC)c3c(=O)c2OC)cc1OC [HEXAMETHOXYFLAVONE]	20.6 µM	inactive	92.1 µM
COc1ccc(-c2oc3c(OC)c(OC)c(OC)c(OC)c3c(=O)c2O)cc1OC [NATSUDAIDAI]	> 100 µM	inactive	56.5 µM
COc1ccc(-c2cc(=O)c3c(O)c(OC)c(OC)c(OC)c3o2)cc1 [GARDENIN B]	> 100 µM	inactive	> 100 µM
COc1ccc(-c2oc3cc(OC)c(OC)c(O)c3c(=O)c2OC)cc1OC [ARTEMETIN]	6.44 µM	inactive	7.26 µM

Continued, in another order:

IC50 [1]	SMILES	Activity [2]	AC50 [3]
52.7 µM	COc1ccc(-c2cc(=O)c3c(OC)c(OC)c(OC)c(OC)c3o2)cc1O	inactive	94.6 µM
2.07 µM	COc1ccc(-c2cc(=O)c3c(O)c(OC)c(OC)c(OC)c3o2)cc1OC [5-DEMETHYLNOBILETIN]	inactive	5.87 µM
> 100 µM	COc1ccc(-c2cc(=O)c3c(OC)c(OC)c(OC)c(OC)c3o2)cc1 [TANGERETIN]	inactive	> 100 µM
47.4 µM	COc1cc(-c2cc(=O)c3c(OC)c(OC)c(OC)c(OC)c3o2)ccc1O	inactive	87.1 µM
41.5 µM	COc1ccc(-c2cc(=O)c3c(OC)c(OC)c(OC)c(OC)c3o2)cc1OC [NOBILETIN]	inactive	> 100 µM
71.2 µM	COc1c(OC)c(OC)c2c(=O)cc(-c3ccc(O)c(O)c3)oc2c1OC	inactive	> 100 µM
